Read-outs that look alike come from different tables or passages of the source.
Key:
sEH [1] = biological target: T1, sEH (Homo sapiens, UniProt P34913); assay: sEH inhibition assay with PHOME fluorescent substrate; format: biochemical; conditions: for inhibition at 100 µM: compound at 100 µM, read-out: Inhibition of Compounds on sEH, 100 µM(%)
T1 construct: purchased Cayman Chemical Company 10011669
T1 sequence (P34913 1-555): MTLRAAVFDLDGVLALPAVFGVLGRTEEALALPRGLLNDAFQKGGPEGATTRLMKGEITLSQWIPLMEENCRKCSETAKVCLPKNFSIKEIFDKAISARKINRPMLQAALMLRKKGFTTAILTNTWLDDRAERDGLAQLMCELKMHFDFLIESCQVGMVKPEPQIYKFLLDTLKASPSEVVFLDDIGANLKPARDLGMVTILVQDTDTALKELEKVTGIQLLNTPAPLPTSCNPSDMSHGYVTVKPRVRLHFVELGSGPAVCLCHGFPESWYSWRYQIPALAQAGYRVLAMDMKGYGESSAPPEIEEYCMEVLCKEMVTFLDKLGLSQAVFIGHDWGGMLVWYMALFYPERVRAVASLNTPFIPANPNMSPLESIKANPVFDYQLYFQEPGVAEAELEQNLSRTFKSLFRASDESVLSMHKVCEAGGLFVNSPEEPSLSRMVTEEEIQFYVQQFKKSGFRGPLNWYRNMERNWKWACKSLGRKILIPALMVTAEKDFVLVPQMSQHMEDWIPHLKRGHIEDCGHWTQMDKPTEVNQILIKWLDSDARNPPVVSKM

sEH [2] = biological target: T1, sEH; assay: sEH kinetic assay (Lineweaver-Burk and Dixon plots); format: biochemical; conditions: PHOME 5–80 µM; for Ki: calculated from Dixon plots; for Type of inhibition: Lineweaver-Burk plots
[3] = PHOME substrate, mean ± SD (n = 3)
[4] = PHOME substrate, mean ± SD (n = 3), read-out: Inhibition of Compounds on sEH, IC50

inhibition at 100 µM (sEH [1]; [3]) [%]	Ki (sEH [2]) [nM]	IC50 (sEH [1]; [4]) [nM]	Type of inhibition (sEH [2])	SMILES	IC50 (sEH [1]) [nM]
100	1000	1100 ± 100	competitive	COc1cc(O)cc(-c2cc3cc(O)c(OC)cc3o2)c1 [Compound 4, moracin B]	
100	2100	1200 ± 100	mixed types of inhibitors	COc1cc2cc(-c3cc(O)cc(O)c3)oc2cc1O [Compound 5, moracin J]	
100	5800	7700 ± 100	mixed types of inhibitors	OCC1OC(Oc2cc(O)cc(-c3cc4ccc(O)cc4o3)c2)C(O)C(O)C1O (stereo not drawn) [Compound 7, moracin M 3’-O-β-glucopyranoside]	
100	1500	9900 ± 2200	competitive	Oc1cc(O)cc(-c2cc3ccc(O)cc3o2)c1 [Compound 6, moracin M]	
100	300	200 ± 100	competitive	COc1cc2ccc(=O)oc2cc1O [Compound 2, scopoletin]	
100	5400	15900 ± 400	competitive	COc1cc2ccc(=O)oc2cc1OC1OC(CO)C(O)C(O)C1O (stereo not drawn) [Compound 3]	

SMILES	inhibition at 100 µM (sEH [1]; [3]) [%]	Ki (sEH [2]) [nM]	IC50 (sEH [1]; [4]) [nM]	Type of inhibition (sEH [2])	IC50 (sEH [1]) [nM]
O=c1ccc2cc(O)c(O)cc2o1 [Compound 1, aesculetin]	100	1200			6900 ± 500

From article PMC7504814, “Coumarin and Moracin Derivatives from Mulberry Leaves (Morus alba L.) with Soluble Epoxide Hydrolase Inhibitory Activity” (Molecules, 2020)
